Assay results from patent EP1212335B1, “GLUCOPYRANOSIDES CONJUGATES OF 2-(4-HYDROXY-PHENYL)-1- 4-(2-AMIN-1-YL-ETHOXY)-BENZYL]-1H-INDOL-5-OLS” (Wyeth, priority 1999, dated 2001).

Biological target: T1, estrogen receptor (Homo sapiens, UniProt P03372)
T1 construct: since the MCF-7 cells express estrogen receptors; endogenous in cells; host or cells: MCF-7 human mammary carcinoma cells, infected with adenovirus 5-ERE-tk-luciferase (reporter only)
T1 sequence (P03372 1-595): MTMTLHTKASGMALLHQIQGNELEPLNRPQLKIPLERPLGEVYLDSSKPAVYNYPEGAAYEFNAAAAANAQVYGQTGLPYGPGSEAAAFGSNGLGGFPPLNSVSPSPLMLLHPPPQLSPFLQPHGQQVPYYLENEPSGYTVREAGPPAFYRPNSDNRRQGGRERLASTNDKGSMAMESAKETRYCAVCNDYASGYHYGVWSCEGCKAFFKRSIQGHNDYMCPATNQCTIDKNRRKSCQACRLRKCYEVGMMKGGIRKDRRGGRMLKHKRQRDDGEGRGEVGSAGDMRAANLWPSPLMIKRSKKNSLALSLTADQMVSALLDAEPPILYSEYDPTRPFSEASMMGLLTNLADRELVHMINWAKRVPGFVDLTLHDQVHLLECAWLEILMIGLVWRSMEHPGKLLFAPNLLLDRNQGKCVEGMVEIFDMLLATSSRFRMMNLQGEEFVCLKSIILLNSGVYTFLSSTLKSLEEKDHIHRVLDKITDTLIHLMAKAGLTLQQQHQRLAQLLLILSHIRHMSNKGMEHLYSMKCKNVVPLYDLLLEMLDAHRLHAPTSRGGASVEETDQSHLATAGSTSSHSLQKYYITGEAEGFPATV
Experiment: Estrogen antagonist/agonist activity in MCF-7 cells infected with adenovirus 5-ERE-tk-luciferase (luciferase reporter)
Assay type: cell-based
Settings: antagonist mode, co-dosed with 10 pM 17β-estradiol, 24 h treatment
Description: Estrogen antagonist activity was shown for representative compounds of this invention in a standard pharmacological test procedure using MCF-7 cells transfected with an estrogen receptor. When administered orally, the compounds of this invention act at least partially as prodrugs for the corresponding hydroxylated compounds disclosed in EP 802183. Accordingly, the compounds of this invention are tissue selective estrogens, meaning that in certain tissue containing estrogen receptors, the compounds will act as estrogen agonists, and in other tissue containing estrogen receptors, the compounds will act as antagonists. […] The cell lysates (20 uL) were transferred to a 96 well luminometer plate, and luciferase activity was measured in a MicroLumat LB 96 P luminometer (EG and G Bethold) using 100 uL/well of luciferase substrate (Promega Corporation). […] Following the injection of the substrate, luciferase activity was measured for 10 seconds after a 1 second delay. The data were transferred from the luminometer to a Macintosh personal computer and analyzed using the JMP software (SAS institute); this program subtracts the background reading from the luciferase measurement for each well and then determine the mean and standard deviation of each treatment. […]

| IC50 [nM] | Structure (SMILES) |
| --- | --- |
| 210 | Cc1c(-c2ccc(O)cc2)n(Cc2ccc(OCCN3CCCCCC3)cc2)c2ccc(OC3OC(C(=O)O)C(O)C(O)C3O)cc12 (centres unmarked) [Compound 30, 1-[4-(2-Azepan-1-yl-ethoxy)-benzyl]-2-(4-hydroxy-phenyl)-3-methyl-1H-indol-5-ol 5-O-glucuronide] |
| 1100 | Cc1c(-c2ccc(OC3OC(C(=O)O)C(O)C(O)C3O)cc2)n(Cc2ccc(OCCN3CCCCCC3)cc2)c2ccc(O)cc12 (centres unmarked) [Compound 38, 1-[4-(2-Azepan-1-yl-ethoxy)-benzyl]-2-(4-hydroxy-phenyl)-3-methyl-1H-indol-5-ol 4-O-glucuronide] |
